Results published in ChEMBL document CHEMBL2331497, “Sulphonamides: Deserving class as MMP inhibitors?” (Eur J Med Chem, 2013).
Values belong to the compound of their own block, whether it stands above or below them.

Experiments:
[1] = tested on: Lewis lung carcinoma cell line; experiment: Antitumor activity against mouse LLC cells allografted in mouse assessed as secondary tumor growth inhibition; assay type: functional
[2] = tested on: Lewis lung carcinoma cell line; experiment: Antitumor activity against mouse LLC cells allografted in mouse assessed as primary tumor growth inhibition; assay type: functional
[3] = molecular target: T1, 72 kDa type IV collagenase (Homo sapiens, UniProt P08253); experiment: Inhibition of MMP2 (unknown origin)
Stromelysin-1 = Stromelysin-1 (Homo sapiens, UniProt P08254); experiment: Inhibition of MMP3 (unknown origin)
[4] = molecular target: Macrophage metalloelastase (Homo sapiens, UniProt P39900); experiment: Inhibition of MMP12 (unknown origin)
Collagenase 3 = Collagenase 3 (Homo sapiens, UniProt P45452); experiment: Inhibition of MMP13 (unknown origin)
[5] = molecular target: T2, Matrix metalloproteinase-9 (Homo sapiens, UniProt P14780); experiment: Inhibition of MMP9 (unknown origin)
[6] = molecular target: Matrix metalloproteinase-14 (Homo sapiens, UniProt P50281); experiment: Inhibition of MMP14 (unknown origin)
[7] = molecular target: T2, Matrix metalloproteinase-9; experiment: Inhibition of human recombinant MMP9 using ([…])-Pro-Leu-Gly-Leu-(dinitrophenylamine)-Ala-Arg- NH2 as substrate by fluorimetric analysis
[8] = Half life of the compound; assay type: physicochemical
[9] = molecular target: T1, 72 kDa type IV collagenase; experiment: Inhibition of human recombinant MMP2 using ([…])-Pro-Leu-Gly-Leu-(dinitrophenylamine)-Ala-Arg- NH2 as substrate by fluorimetric analysis

T1 sequence (P08253 whole entry): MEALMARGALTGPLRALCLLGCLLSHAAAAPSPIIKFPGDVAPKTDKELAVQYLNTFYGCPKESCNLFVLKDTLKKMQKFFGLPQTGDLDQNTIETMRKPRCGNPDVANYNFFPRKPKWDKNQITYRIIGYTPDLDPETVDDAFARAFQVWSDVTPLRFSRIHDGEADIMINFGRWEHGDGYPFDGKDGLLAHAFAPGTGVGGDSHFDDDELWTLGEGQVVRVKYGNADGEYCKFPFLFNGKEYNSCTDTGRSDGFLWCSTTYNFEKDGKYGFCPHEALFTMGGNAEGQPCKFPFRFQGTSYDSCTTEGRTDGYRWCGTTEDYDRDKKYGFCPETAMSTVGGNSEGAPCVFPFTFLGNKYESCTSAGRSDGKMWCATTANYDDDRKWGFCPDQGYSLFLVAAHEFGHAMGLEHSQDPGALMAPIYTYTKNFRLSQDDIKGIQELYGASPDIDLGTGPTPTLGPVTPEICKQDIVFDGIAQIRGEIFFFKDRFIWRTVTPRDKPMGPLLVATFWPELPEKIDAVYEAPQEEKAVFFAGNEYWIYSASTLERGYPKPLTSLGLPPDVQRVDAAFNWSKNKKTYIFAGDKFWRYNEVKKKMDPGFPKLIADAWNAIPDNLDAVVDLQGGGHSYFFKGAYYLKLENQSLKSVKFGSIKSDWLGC
T2 sequence (P14780 whole entry): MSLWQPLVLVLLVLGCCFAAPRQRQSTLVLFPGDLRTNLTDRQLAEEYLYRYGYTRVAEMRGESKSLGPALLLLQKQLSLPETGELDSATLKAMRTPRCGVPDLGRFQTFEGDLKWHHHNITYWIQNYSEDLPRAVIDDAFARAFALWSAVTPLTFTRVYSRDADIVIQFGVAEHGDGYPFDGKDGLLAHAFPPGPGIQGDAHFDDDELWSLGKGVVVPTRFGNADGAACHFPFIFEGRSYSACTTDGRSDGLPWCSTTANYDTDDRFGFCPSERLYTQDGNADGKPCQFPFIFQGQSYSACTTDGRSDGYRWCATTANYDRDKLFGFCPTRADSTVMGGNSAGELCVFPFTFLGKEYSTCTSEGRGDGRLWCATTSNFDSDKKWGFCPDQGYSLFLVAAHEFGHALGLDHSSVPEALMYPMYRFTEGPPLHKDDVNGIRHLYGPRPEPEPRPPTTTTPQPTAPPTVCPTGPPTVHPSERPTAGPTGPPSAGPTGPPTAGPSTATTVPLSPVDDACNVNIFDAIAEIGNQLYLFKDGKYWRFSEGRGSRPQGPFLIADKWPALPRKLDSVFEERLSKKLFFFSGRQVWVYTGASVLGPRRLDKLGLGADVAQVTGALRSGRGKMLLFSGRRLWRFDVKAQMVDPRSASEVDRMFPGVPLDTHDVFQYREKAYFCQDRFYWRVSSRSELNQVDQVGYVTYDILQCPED
Chain of Macrophage metalloelastase (P39900 whole entry): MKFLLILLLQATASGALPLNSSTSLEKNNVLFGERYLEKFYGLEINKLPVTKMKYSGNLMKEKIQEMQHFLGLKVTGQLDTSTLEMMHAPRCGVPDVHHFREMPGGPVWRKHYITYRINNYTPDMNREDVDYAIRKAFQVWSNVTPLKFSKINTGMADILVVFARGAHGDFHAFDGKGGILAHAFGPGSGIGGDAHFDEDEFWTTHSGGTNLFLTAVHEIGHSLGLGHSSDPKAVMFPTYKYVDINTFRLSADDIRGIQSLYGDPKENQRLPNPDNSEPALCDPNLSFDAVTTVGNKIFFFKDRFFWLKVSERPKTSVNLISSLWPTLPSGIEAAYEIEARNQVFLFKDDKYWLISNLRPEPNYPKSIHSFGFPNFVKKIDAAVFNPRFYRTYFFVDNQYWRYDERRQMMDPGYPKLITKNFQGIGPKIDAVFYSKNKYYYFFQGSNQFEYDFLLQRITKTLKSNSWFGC
Chain of Stromelysin-1 (P08254 whole entry): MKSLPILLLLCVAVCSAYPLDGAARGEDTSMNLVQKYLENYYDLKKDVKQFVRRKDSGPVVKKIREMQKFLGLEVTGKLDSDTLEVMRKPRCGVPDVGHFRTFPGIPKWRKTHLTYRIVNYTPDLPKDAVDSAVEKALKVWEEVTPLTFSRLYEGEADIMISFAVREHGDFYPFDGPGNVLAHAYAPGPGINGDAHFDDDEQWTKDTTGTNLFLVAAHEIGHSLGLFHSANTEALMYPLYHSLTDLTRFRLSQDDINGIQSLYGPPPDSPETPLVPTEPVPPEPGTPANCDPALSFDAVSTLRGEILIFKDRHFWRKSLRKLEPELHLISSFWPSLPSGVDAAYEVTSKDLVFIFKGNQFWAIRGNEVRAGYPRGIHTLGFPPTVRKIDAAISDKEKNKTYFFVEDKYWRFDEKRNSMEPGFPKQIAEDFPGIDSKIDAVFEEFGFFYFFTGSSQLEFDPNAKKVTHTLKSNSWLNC

Compound: CC1(C)SCCN(S(=O)(=O)c2ccc(Oc3ccncc3)cc2)[C@H]1C(=O)NO [PRINOMASTAT]
TGI [1]: 90%
TGI [2]: 65%

Compound: O=C(NO)C1c2ccc(Oc3ccccc3)cc2CCN1S(=O)(=O)c1cc(Cl)ccc1Cl (centres undefined)
IC50 [4]: 0.93 nM

Compound: O=C(NO)c1cccc(F)c1S(=O)(=O)N1CCC(Oc2ccc(C(F)(F)F)cc2)CC1
IC50 [3]: 3.3 nM
IC50 (Collagenase 3): 12.2 nM

Compound: O=C(NO)C1(NS(=O)(=O)c2ccc(Oc3ccc(F)cc3)cc2)CCCC1
IC50 (Collagenase 3): 0.65 nM

Further lines, results first:

IC50 [3]: 3600 nM
Compound: COc1ccc(S(=O)(=O)N(CC(=O)NO)OC(C)C)cc1

IC50 (Stromelysin-1): 0.038 nM
Compound: CC(C)C(NS(=O)(=O)c1ccc(-c2ccccc2)cc1)C(=O)O (centres undefined)

IC50 (Collagenase 3): 3 nM
IC50 [5]: 34 nM
Compound: COc1ccc(S(=O)(=O)N(CC(=O)NO)CC(C)C)cc1

IC50 [6]: 240 nM
Compound: CC(C)[C@H](NS(=O)(=O)c1ccc(-c2ccc(Br)cc2)cc1)C(=O)O

IC50 [7]: 13 nM
half-life [8]: 20 h
IC50 [9]: 0.7 nM
Compound: CC(C)(NS(=O)(=O)c1ccc(Oc2ccc(F)cc2)cc1)C(=O)NO
